Patent publication US8981084B2, “Oxadiazole HDAC inhibitors” (Tempero Pharmaceuticals, Inc., priority 2011, dated 2015)

Biological target: T1, Recombinant HDAC9 isoform 4 (Homo sapiens, UniProt Q9UKV0)
T1 construct: purchased BPS Bioscience
Test: Histone Deacetylase 9 (HDAC9) inhibition assay, fluorogenic substrate
Format: biochemical
Conditions: mean of a minimum of 2 experiments; 11 point 3x dilution series from 100 uM; Class IIa HDAC-specific fluorogenic substrate 4.5 uM; read-out: mean pIC50, inhibition of HDAC9 (converted)
Source text: Histone Deacetylase 9 (HDAC9) Inhibition Assay:
Novel histone deacetylase 9 (HDAC9) inhibitors were characterized in an in vitro biochemical functional assay. The assay measures the increased fluorescent signal due to deacetylation, by HDAC9, of a fluorogenic substrate. The commercial available substrate is Class IIa HDAC-specific and contains an acetylated lysine residue and would releases the fluorescent signal upon trypsin cleavage after deacetylation.
Specifically, test compounds diluted to various concentrations in 100% DMSO are first dispensed into 384-well assay plates. Recombinant HDAC9 isoform 4 (purchased from BPS Bioscience) in complete assay buffer (50 mM Tris-HCl, pH 8.0, 137 mM NaCl, 2.7 mM KCl, 1 mM MgCl2, 0.05% BSA & 0.005% Tween 20) were then added to each well (5 uL/well) using Multidrop Combi (Thermo Scientific), followed by 5 uL/well substrate (purchased from BPS Bioscience, 4.5 uM final). After 45 minutes incubation at room temperature, 10 uL 2× developer solution (assay buffer with 40 uM Trypsin and 20 uM Trichostatin A) was added. The plates were then incubated 1 hour at room temperature before reading in fluorescent intensity mode at 450 nm in an Envision (Perkin Elmer) plate reader. Percent Inhibition of HDAC9 activity by compounds in each test wells was calculated by normalizing to fluorescent signal in control wells containing DMSO only. The pIC50s value of test compounds were calculated from non-linear curve fitting, using ActivityBase5 data analysis tool (IDBS), from 11 point 3× dilution series starting from 100 uM final compound concentration.
For dose response experiments, normalized data were fit by ABASE/XC50 using the equation y=a+(b−a)/(1+(10^×/10^c)^d), where a is the minimum % activity, b is the maximum % activity, c is the pIC50, d is the Hill slope.
The pIC50s are averaged to determine a mean value, for a minimum of 2 experiments. […] For instance, the compounds of Examples 1, 38, 61 and 79 inhibited HDAC9 in the above method with a mean pIC50 of >6.

T1 sequence (Q9UKV0 1-1066 isoform Q9UKV0-5): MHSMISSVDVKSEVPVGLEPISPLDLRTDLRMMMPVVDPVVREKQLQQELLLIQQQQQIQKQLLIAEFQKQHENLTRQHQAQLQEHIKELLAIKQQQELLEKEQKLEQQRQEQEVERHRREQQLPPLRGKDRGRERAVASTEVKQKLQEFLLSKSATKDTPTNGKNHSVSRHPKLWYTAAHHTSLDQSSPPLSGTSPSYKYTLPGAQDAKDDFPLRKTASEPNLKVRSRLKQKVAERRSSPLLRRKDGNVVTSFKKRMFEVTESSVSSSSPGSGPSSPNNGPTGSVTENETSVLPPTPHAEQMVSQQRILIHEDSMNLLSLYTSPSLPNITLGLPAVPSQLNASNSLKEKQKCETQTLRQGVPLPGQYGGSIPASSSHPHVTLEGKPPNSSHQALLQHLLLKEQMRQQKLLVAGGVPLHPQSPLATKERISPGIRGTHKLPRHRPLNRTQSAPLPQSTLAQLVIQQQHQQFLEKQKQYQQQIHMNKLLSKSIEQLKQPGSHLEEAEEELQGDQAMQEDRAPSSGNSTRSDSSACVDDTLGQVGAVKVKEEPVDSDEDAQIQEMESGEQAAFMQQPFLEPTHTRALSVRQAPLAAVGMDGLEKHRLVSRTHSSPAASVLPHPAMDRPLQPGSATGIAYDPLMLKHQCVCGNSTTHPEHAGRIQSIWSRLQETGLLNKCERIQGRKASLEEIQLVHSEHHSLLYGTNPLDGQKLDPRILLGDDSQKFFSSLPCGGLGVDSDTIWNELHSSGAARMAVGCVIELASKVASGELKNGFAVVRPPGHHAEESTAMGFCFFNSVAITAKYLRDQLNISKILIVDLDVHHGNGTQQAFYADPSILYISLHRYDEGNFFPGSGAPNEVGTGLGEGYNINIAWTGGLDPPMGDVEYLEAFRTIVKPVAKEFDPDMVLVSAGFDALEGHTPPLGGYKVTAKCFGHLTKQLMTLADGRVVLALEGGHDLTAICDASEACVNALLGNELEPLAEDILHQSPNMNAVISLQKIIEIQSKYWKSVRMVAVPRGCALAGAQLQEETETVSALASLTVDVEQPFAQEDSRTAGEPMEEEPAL

| IC50 | SMILES |
| --- | --- |
| < 1 µM | O=C(c1cccc(-c2noc(C(F)(F)F)n2)c1)N1CCCN(c2ccc(C(F)(F)F)cn2)CC1 [Example 1, (3-(5-(Trifluoromethyl)-1,2,4-oxadiazol-3-yl)phenyl)(4-(5-(trifluoromethyl)pyridin-2-yl)-1,4-diazepan-1-yl)methanone] |
| < 1 µM | N#Cc1ccc(N2CCN(C(=O)c3cccc(-c4noc(C(F)(F)F)n4)c3)CC2)cc1 [Example 38, 4-(4-(3-(5-(Trifluoromethyl)-1,2,4-oxadiazol-3-yl)benzoyl)piperazin-1-yl)benzonitrile] |
| < 1 µM | N#Cc1ccc(N2CCN(C(=O)c3cccc(-c4ccc(C(=O)C(F)(F)F)s4)c3)CC2)nc1 [Example 61, 6-(4-(3-(5-(2,2,2-Trifluoroacetyl)thiophen-2-yl)benzoyl)piperazin-1-yl)nicotinonitrile] |
| < 1 µM | O=C(c1cccc(-c2noc(C(F)(F)F)n2)c1)N1CC(Cc2nc(-c3ccc(F)cc3)cs2)C1 [Example 79, (3-((4-(4-Fluorophenyl)thiazol-2-yl)methyl)azetidin-1-yl)(3-(5-(trifluoromethyl)-1,2,4-oxadiazol-3-yl)phenyl)methanone] |
